Measured values from patent US20240398817A1, “CARDIO- AND RENOSAFE ANTIDIABETIC THERAPY” (priority 2018, published 2024).
Entries after “also recorded” stand apart in the source; their conditions may differ.

System: patients with type 2 diabetes at high vascular risk
Assay: Cardiovascular and Renal Outcomes Trial: linagliptin 5 mg once daily vs placebo on top of standard of care
Assay type: in vivo
Conditions: for Albuminuria progression: patients, %: of 2162 analysed; for Hospitalisation for heart failure vs placebo, in words: subgroup without insulin use at baseline
Protocol: The effect of linagliptin on cardiovascular risk in adult patients with type 2 diabetes mellitus and with increased CV risk evidenced by a history of established macrovascular or renal disease (e.g. as defined herein) was evaluated in a multi-center, multi-national, randomized, double-blind parallel group trial. The trial compared the risk of experiencing a major adverse cardiovascular event (MACE) between linagliptin and placebo when these were added to and used concomitantly with standard of care treatments for diabetes (HbA1c), cardiovascular risk factors and renal disease.
The primary endpoint in this trial was the time to first occurrence of three point (3P) MACE. A major adverse cardiac event was defined as a cardiovascular death or a nonfatal myocardial infarction (MI) or a nonfatal stroke. The statistical analysis plan tested for non-inferiority for the occurrence of (3P) MACE. […] The secondary endpoint was a renal composite, defined as renal death or sustained end stage renal disease or sustained decrease of 40% or more in eGFR.
Type 2 diabetes patient with insufficient glycemic control (naïve or pre-treated with any antidiabetic background medication, excluding treatment with GLP-1 receptor agonists, DPP-4inhibitors or SGLT-2 inhibitors if ≥consecutive 7 days, e.g. having HbA1c 6.5-10%), and high risk of cardiovascular events, e.g. defined by: • albuminuria (micro or macro) and previous macrovascular disease: e.g. defined according to Condition I as indicated below; • and/or • impaired renal function: e.g. as defined according to Condition II as indicated below;
Background and aims: People with type 2 diabetes (T2D) are at increased risk for hospitalization for heart failure (hHF), particularly in the setting of concomitant cardiovascular (CV) and/or kidney disease. […] Here we present analyses of HF outcomes with the DPP-4 inhibitor linagliptin (LINA) vs. placebo (PBO) from a Cardiovascular and Renal Outcomes Trial assessing cardiovascular safety and renal microvascular outcome in patients with type 2 diabetes at high vascular risk, a large CV outcomes trial that enrolled participants with T2D at high risk for hHF due to concomitant CV and/or chronic kidney disease. Materials and methods: People with T2D and concomitant CV and/or kidney disease were randomized to receive LINA 5 mg, or PBO once daily (1:1), on top of standard of care. All hHF, CV outcomes, and deaths were centrally adjudicated, with individual and composite HF-related outcomes analyses comparing LINA vs. placebo. Investigator-reported HF-related adverse events, whether or not confirmed by adjudication, were also analyzed. A Cox proportional hazards model adjusting for region and history of HF was used for analyses of first events. Recurrent hHF events were analyzed using a negative binomial model.
Methods: The present Cardiovascular and Renal Outcomes Trial randomized people with T2D and i) concomitant CV disease with UACR >30 mg/g or ii) prevalent CKD (i.e. GFR <45 ml/min/1.73m2 and/or UACR >200 mg/g) to receive the DPP-4 inhibitor linagliptin (5 mg) or placebo once daily in a double-blind fashion. The primary CV endpoint was 3P-MACE, with a key secondary kidney endpoint (adjudicated ESKD, renal death, or sustained ≥40% decrease in eGFR from baseline) and other renal outcomes (including albuminuria and eGFR slope) also assessed. Subgroups were assessed by baseline kidney function (eGFR ≥/<45 ml/min/1.73m2and eGFR ≥/<30, 45 or 60 ml/min/1.73m2).
Adults with type 2 diabetes, HbA1c 6.5-10.0% inclusive, and high CV risk were eligible for inclusion. […] Macrovascular disease eligibility criteria was based on documented and confirmed history of myocardial infarction, coronary artery disease, stroke, carotid artery disease, or peripheral artery disease. Participants with end-stage kidney disease (ESKD), defined as eGFR <15 or requiring maintenance dialysis, were excluded.

CC#CCn1c(N2CCC[C@@H](N)C2)nc2c1c(=O)n(Cc1nc(C)c3ccccc3n1)c(=O)n2C [Linagliptin, 1-[(4-methyl-quinazolin-2-yl)methyl]-3-methyl-7-(2-butyn-1-yl)-8-(3-(R)-amino-piperidin-1-yl)-xanthine]
Hospitalization for unstable angina: rate/1000 patient-years (in vivo): 5.5 per 1000 patient years | Hypersensitivity reactions, all AEs: % (in vivo): 3.3% | Hypersensitivity reactions, all AEs: N (in vivo): 114 | Investigator reported HF events: HR vs placebo (in vivo): 0.87 | Investigator reported HF events: events (in vivo): 243 | Investigator reported hypoglycemia: % (in vivo): 29.7% | Investigator reported hypoglycemia: N (in vivo): 1036 | New initiation of loop diuretics or hHF: HR vs placebo (in vivo): 0.95 | New initiation of loop diuretics or hHF: participants (in vivo): 330/2530 | New introduction of loop diuretics: HR vs placebo (in vivo): 0.94 | New introduction of loop diuretics: participants (in vivo): 318/2530 | Non-cardiovascular death: % (in vivo): (3.2) % | Non-cardiovascular death: hazard ratio vs placebo (in vivo): 1.02 | Non-cardiovascular death: no. (in vivo): 112 | Non-cardiovascular death: rate/1000 patient-years (in vivo): 14.3 per 1000 patient years | Non-fatal myocardial infarction: % (in vivo): (4.5) % | Non-fatal myocardial infarction: hazard ratio vs placebo (in vivo): 1.15 | Non-fatal myocardial infarction: no. (in vivo): 156 | Non-fatal myocardial infarction: rate/1000 patient-years (in vivo): 20.6 per 1000 patient years | Non-fatal stroke: % (in vivo): (1.9) % | Non-fatal stroke: hazard ratio vs placebo (in vivo): 0.88 | Non-fatal stroke: no. (in vivo): 65 | Non-fatal stroke: rate/1000 patient-years (in vivo): 8.5 per 1000 patient years | Pancreatic cancer: % (in vivo): 0.3% | Pancreatic cancer: N (in vivo): 11 | Participants with ≥2 hHF events: % (in vivo): 1.7% | Participants with ≥2 hHF events: n (in vivo): 60 | Pemphigoid (bullous pemphigoid): % (in vivo): 0.2% | Pemphigoid (bullous pemphigoid): N (in vivo): 7 | Reduction of risk of albuminuria progression compared to placebo (in vivo): about 14% | Reduction of risk of microvascular renal and/or eye complications compared to placebo (in vivo): about 14% | Renal death, sustained ESKD, or sustained decrease of 50% or more in eGFR from baseline: hazard ratio vs placebo (in vivo): 0.98 | Risk of HHF regardless of baseline renal function, in words (in vivo): did not affect the risk of HHF | Risk of albuminuria progression vs placebo, in words (in vivo): significantly reduced | Risk of hospitalization for heart failure, in words (in vivo): no increase in the risk | Serious adverse events: % (in vivo): 37.0% | Serious adverse events: N (in vivo): 1293 | Skin lesions: % (in vivo): 0.1% | Skin lesions: N (in vivo): 5 | Stent thrombosis, hospitalisation for peripheral vascularisation, retinopathy-related endpoints vs placebo, in words (in vivo): no significant difference | Sustained decrease of 30% or more in eGFR with eGFR <60; and renal death, sustained ESRD or CV death vs placebo, in words (in vivo): no significant difference | Time to first event of investigator reported events or adjudicated hHF: HR vs placebo (in vivo): 0.92 | Time to first event of investigator reported events or adjudicated hHF: events (in vivo): 305 | eGFR changes over time and transition in CKD status vs placebo, in words (in vivo): no clinically meaningful differences | eGFR slope (MDRD): between-group difference vs placebo, estimate ± SE (in vivo): −0.175 ± 0.151 /year | eGFR-slope, in words (in vivo): unaffected | hHF or all-cause mortality: HR vs placebo (in vivo): 0.95 | hHF or all-cause mortality: events (in vivo): 499 | 4-point MACE: % (in vivo, listed as linagliptin): 13.3% | Acute pancreatitis, adjudication confirmed: N (in vivo, listed as linagliptin): 9 | Albuminuria progression: hazard ratio (95% CI) vs placebo (in vivo, listed as linagliptin): 0.86 | Albuminuria progression: rate/100 patient-years (in vivo, listed as linagliptin): 21.4 per 100 patient-years | Hospitalization for heart failure or cardiovascular death: % (in vivo, listed as linagliptin): 11.6% | Skin lesions: % (in vivo, listed as linagliptin): 0.2% | Risk of major adverse cardiovascular events (3P-MACE) vs placebo, in words (median follow up 2.2 years): non-inferior to placebo | Risk of renal outcome events vs placebo, in words (median follow up 2.2 years): did not increase the risk | Risk of major adverse cardiovascular events (3P-MACE) vs placebo, in words (median follow up 2.2 years, listed as linagliptin): did not increase the risk | Any adverse events: N (n = 3494): 2697 | eGFR slope (MDRD) from baseline to last value on treatment/year, estimate ± SE (n = 6740 both groups): −2.459 ± 0.106 /year | hHF events (first+recurrent): rate ratio vs placebo (negative binomial model): 0.94 | Albuminuria progression: patients, %: (35.3) % | Albuminuria progression: patients, % (listed as linagliptin): 35.3% | Contributing to composite microvascular outcome: patients with albuminuria progression, % (of n = 3494): 21.3% | Albuminuria progression: number of patients (patients analysed 2162 (n = 4291 both groups)): 763 | Rate of hypoglycemia compared to placebo, in words (patients taking sulfonylurea at baseline): numerically higher rate | Incidence of severe hypoglycaemia (patients using insulin at baseline): 4.4% | Incidence of severe hypoglycaemia (patients using sulfonylurea at baseline): 2.0% | Time to onset of intensification or initiation of insulin vs placebo, in words (patients without insulin use at baseline): later | Cumulative number of hHF events (first+recurrent) (recurrent events analysis): 326 | Patients who achieved glycaemic control at the end of the study irrespective of antidiabetic medication: % (study end): 29.0% | Patients who achieved glycaemic control at the end of the study irrespective of antidiabetic medication: n (study end): 1012 | Proportion achieving glycaemic control at study end without additional or increased antidiabetic medication vs placebo, in words (study end visit): significantly greater | Risk of hHF vs placebo, in words (subgroup baseline SBP <140 mmHg): statistically lower risk of hHF | Risk of hHF vs placebo, in words (subgroup enrolled from North America or Asia, listed as LINA): nominally significant reductions | Risk of hHF vs placebo, in words (subgroup enrolled from North America or Asia, listed as linagliptin): Statistically significant lower risk of hHF | Hospitalisation for heart failure vs placebo, in words (listed as LINA): nominally significant reduction | Hospitalisation for heart failure vs placebo, in words (listed as linagliptin): favouring linagliptin in patients without insulin; also recorded: Statistically significant lower risk of hHF | 4P-MACE, CV death, all-cause mortality, and MI-related endpoints vs placebo, in words (tertiary endpoints): no significant differences | Fatal and non-fatal stroke and transient ischaemic attack vs placebo, in words (tertiary endpoints): no significant differences | hHF; CV death or hHF; all-cause mortality or hHF; heart failure AEs vs placebo, in words (tertiary endpoints): no significant differences | Severe hypoglycemic event (requiring assistance): % (treated population): 3.0% | Severe hypoglycemic event (requiring assistance): N (treated population): 106 | UACR vs placebo, in words (up to Week 132): statistically significant and clinically meaningful reduction | UACR: difference at week 36 (gMean ratio of relative change for linagliptin versus placebo) (week 36): 0.87 | UACR: difference at week 84 (gMean ratio of relative change for linagliptin versus placebo) (week 84): 0.88
